The record followed here is patent publication US20100273661A1, “Methods and Kits for Predicting Treatment Response in Type II Diabetes Mellitus Patients” (SmithKline Beecham Corporation, priority 2007, published 2010).

Common to all, as to assay type: in vivo, human
The test system of one experiment is male subjects with T2DM. Description: Eight week single-blind treatment study; responder defined by composite score of glycemic-lowering efficacy (FPG, fructosamine, HbA1c). As to conditions: responder = composite % reduction 1(%ΔFPG)+2(%ΔFructosamine)+1.5(%ΔHbA1c) greater than 30%, 8 weeks. From the text: The study described herein was relatively small-scale (75 male subjects with T2DM) and short-term (8 weeks of treatment). Serum and urine samples were obtained at pre-treatment baseline, and after 4 and 8 weeks of treatment with one of the following: placebo, rosiglitazone, metformin or glyburide. High information content nuclear magnetic resonance (NMR) and liquid chromatography/mass spectroscopy (LC/MS)-based metabolomic platforms, including polar metabolite and lipid profiling, were used to profile the serum and urine samples. A variety of multivariate analysis techniques were used to determine whether polar low molecular weight metabolites, lipids, or fatty acids, analyzed in readily accessible fluids can be used to predict drug responder status at week 8 based on their measurement at baseline or at week 4.
Male subjects aged 30 to 70 years with a documented history of stable T2DM for no more than 10 years duration were eligible for the study described herein if they had been previously treated with diet and exercise alone, monotherapy or low-dose combination therapy. Fasting plasma glucose (FPG) at screening could not exceed 225 mg/dL for subjects treated with diet and exercise alone or 180 mg/dL for subjects receiving monotherapy or low-dose combination therapy. HbA1c was required to be within 5.7 to 10.0% with the following conditions; subjects with HbA1c between 5.7 and 9% must have been diabetic for less than 5 years and treated with mono or low dose combination therapy and have a FBG of 125 to 180 mg/dL, and subjects with HbA1c between 9.1 and 10.0% must not have been treated with combination therapy. In addition, body mass index must have been within the range of 25 to 37.5 kg/m^2, for subjects aged […] years, or 25 to 35.0 kg/m^2 for subjects aged 56 to 70 years. […]
Originally, efficacy response was defined as a FPG decrease of greater than 30 mg/dl. […] Fructosamine, whose half-life is determined by that of albumin, provides a measure of integrated glucose over a period of 2-4 weeks. […]

The test system of a further experiment is urine citrate. Kind of experiment: Urine citrate measured by NMR at week 0 and week 8 in rosiglitazone responders and non-responders. As to conditions: week 8 vs week 0. How it is done: FIGS. 4A-4C show the measure of selected biomarkers in urine or serum.
Male subjects aged 30 to 70 years with a documented history of stable T2DM for no more than 10 years duration were eligible for the study described herein if they had been previously treated with diet and exercise alone, monotherapy or low-dose combination therapy. Fasting plasma glucose (FPG) at screening could not exceed 225 mg/dL for subjects treated with diet and exercise alone or 180 mg/dL for subjects receiving monotherapy or low-dose combination therapy. […]
Serum and urine samples were analyzed using various metabolomic platforms and with traditional serum biomarker (“non-omic”) measurements. Both urine and serum were measured by nuclear magnetic resonance (NMR)-based metabolic profiling. Serum samples were also analyzed by liquid chromatograph (LC)/mass spectrometry (MS) for polar metabolites and lipids, and gas chromatograph (GC)-flame ionization for fatty acids (lipidomics). […]
Citrate may play a critical role in cataplerosis (the export of mitochondrial intermediates into the cytosol and in the induction of fatty acid-derived signaling molecules) and glucose-regulated insulin release [Flamez, D. et al., Diabetes 51, 2018-2024 (2002)]. Because citrate was not quantified in plasma or liver, it is hard to pinpoint the actual biochemical context for the change in this metabolite. […]

Experiment [1] has as its system inflammation associated with obesity and diabetes. Description: Apparent inflammation observed in the study under rosiglitazone treatment. The settings on record: observed in this study and also reported in the literature. From the text: Serum IL-8 at baseline was higher in responders than non-responders (p=0.032) (FIG. 4C). IL-8 is an important cytokine in the inflammatory process. It is stimulated by high glucose concentrations in endothelial cells in vitro and has chemotactic activity for polymorphonuclear neutrophils (playing an important role in the pathogenesis of chronic complications of diabetes), as well as for T-lymphocyte and smooth muscle cells. Serum IL-8 level was reported to markedly increase in diabetic patients [Zozulinska, D., et al., Diabetologia 42, 117-118 (1999)]. […] Thus, it seems consistent that subjects with higher IL-8 levels were more responsive to rosiglitazone treatment.

Structures are written as SMILES.

For the molecule `CN(C)C(=N)N=C(N)N` [Metformin], the “Fractions of responders in each treatment after eight weeks of treatment” value (“Fractions of responders” below) with male subjects with T2DM is 0.53.
`CN(CCOc1ccc(CC2SC(=O)NC2=O)cc1)c1ccccn1` (stereo not drawn) [Rosiglitazone, 5-[[4-[2-(methyl-pyridin-2-yl-amino)ethoxy]phenyl]methyl]thiazolidine-2,4-dione]: the “Fractions of responders” value with male subjects with T2DM came to 0.43. The “change in level of urine citrate after 8 week treatment, non-responder subjects” value in the experiment on urine citrate (non-responders (n=12)) is on record as “did not change”. The “change in level of urine citrate after 8 week treatment, responder group” value with urine citrate (responders (n=9)) is on record as “did increase urine citrate (not statistically significant)”. Besides, in experiment [1], the “effect of treatment on apparent inflammation” value was “reduce apparent inflammation”.
For `COc1ccc(Cl)cc1C(=O)NCCc1ccc(S(=O)(=O)NC(=O)NC2CCCCC2)cc1` [Glyburide, 5-chloro-N-[2-[4-(cyclohexylcarbamoylsulfamoyl)phenyl]ethyl]-2-methoxy-benzamide], the “Fractions of responders” value in the experiment with male subjects with T2DM is 0.60.
